Source: patent US20160074373A1, “METHODS AND COMPOSITIONS FOR INHIBITING HUMAN COPPER TRAFFICKING PROTEINS ATOX1 AND CCS” (SHANGHAI INSTITUTE OF MATERIA MEDICA, CHINESE ACADEMY OF …, priority 2013, published 2016)
“And” between values parts separate entries of the source, which are not always exact repeats. Equal entries are not always repeated.

Columns and labels:
H1299 cells [1] = assay: Apoptosis and caspase-3 activity
[2] = system: Lung cancer H1299 cell, Head and neck cancer 212LN cell, Breast cancer MB231 cell; assay: Cancer cell viability / proliferation
K562 cells [3] = assay: K562 xenograft; details: 100 mg/kg/day i.p. for 21 days vs vehicle control
K562 cancer cells [4] = assay: 8-OHdG levels by triple quadrupole mass spectrometry; type: cell-based
From the text: FIG. 20B illustrates 8-OHdG levels in K562 cancer cells determined by triple quadrupole mass spectrometry analysis. […] .

[5] = system: cytochrome c oxidase (CCO) in K562 cells; assay: Cytochrome c oxidase activity assay; details: compared to the control
H1299 cells [6] = assay: Intracellular ATP measurement
[7] = system: human PIG1 cell and human dermal fibroblast cell
H1299 cells [8] = assay: Glucose utilization assay
K562 cells [9] = assay: Intracellular ATP measurement
SOD1 and SOD2 = assay: Western blot of SOD1 and SOD2 levels; details: H1299 and K562 cells
H1299 cells [10] = assay: 14C-RNA synthesis from 14C-glucose
H1299 cells [11] = assay: H1299 xenograft; details: 100 mg/kg/day i.p. for 21 days vs vehicle control
human CCS (hCCS) = target: T1, human CCS (hCCS) (Homo sapiens, UniProt O14618); assay: Intrinsic fluorescence Kd measurement; type: binding; details: intrinsic tryptophan fluorescence
T1 construct: 6-His (cleaved yes); made in house; host or cells: E. coli BL21 (pET28a)
T1 sequence (O14618 1-274): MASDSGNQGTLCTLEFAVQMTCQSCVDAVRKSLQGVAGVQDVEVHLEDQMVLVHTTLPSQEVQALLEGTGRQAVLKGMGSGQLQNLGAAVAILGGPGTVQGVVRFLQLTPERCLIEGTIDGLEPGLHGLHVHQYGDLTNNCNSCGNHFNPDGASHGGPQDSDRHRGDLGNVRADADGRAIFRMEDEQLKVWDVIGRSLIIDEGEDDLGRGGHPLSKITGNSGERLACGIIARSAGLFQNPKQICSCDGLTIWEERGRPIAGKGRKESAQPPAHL
Experimental: Based on this similarity, the intrinsic fluorescence of tyrosine for Atox1 and WD4 and tryptophan for hCCS upon addition of small molecules was monitored.
The binding assay was performed in an […]. […] The Atox, WD4 domain and hCCS (1 μM) were performed in 50 mM HEPES, 200 mM NaCl, 1 mM DTT (pH 7.1). […] Following this fluorescence results, the Kds of the small molecules was calculated.

[12] = system: SOD activity in K562 cells; assay: SOD activity assay; details: 48 h treatment
K562 cancer cells [13] = assay: Cell cycle arrest assay
[14] = system: SOD activity in H1299 cells; assay: SOD activity assay; details: 48 h treatment
K562 cells [15] = assay: ROS production (DCFH-DA); type: cell-based; details: 10 μM
Experimental: (§1) Cells were treated with DMSO and DC_AC50 for 12 h and ROS generation was detected with DCFH-DA. Cells were incubated with 10 μM of DCFH-DA for 30 min at 37° C., washed twice with PBS, and immediately analyzed by a FACScan flow cytometer. The antioxidant NAC was treated with 3 mM concentration.

H1299 cells [16] = assay: ROS production (DCFH-DA); type: cell-based; details: 10 μM
Experimental: as §1

H1299 cancer cells [17] = assay: 8-OHdG levels by triple quadrupole mass spectrometry; type: cell-based
From the text: FIG. 20A illustrates 8-OHdG levels in H1299 cancer cells determined by triple quadrupole mass spectrometry analysis. […] .

HeLa cells = assay: Live cell copper(I) probe imaging of copper uptake; details: 50 μM, added 10 min after CuSO4 (150 μM)
H1299 cells [18] = assay: Oxygen consumption rate; details: in the presence or absence of oligomycin
H1299 cancer cells [19] = assay: Cell cycle arrest assay
H1299 cells [20] = assay: 14C-lipid synthesis from 14C-glucose; type: cell-based
H1299 cells [21] = assay: Lactate production
[22] = system: cytochrome c oxidase (CCO) in H1299 cells; assay: Cytochrome c oxidase activity assay; details: compared to the control
[23] = Experimental: An in vivo small molecule treatment experiment was performed to further test the efficacy of these compounds.
[24] = system: AMPK phosphorylation and ACC1 phosphorylation; assay: Western blot of AMPK and ACC1 phosphorylation; type: cell-based; details: H1299 and K562 cells

## Nc1c(C(=O)Nc2c(F)cc(F)cc2Br)sc2nc3c(cc12)CCC3 [Compound 50, 3-amino-N-(2-bromo-4,6-difluorophenyl)-6,7-dihydro-5H-cyclopenta[b]thieno[3,2-e]pyridine-2-carboxamide]
H1299 cells [1]
  apoptosis: didn't noticeably induce apoptosis
  caspase-3 activity: does not noticeably affect
[2]; H1299, 212LN, MB231, increasing doses
  cell death in cancer cells: induce cell death
[2]; dose-dependent
  cancer cell proliferation: high efficiency in inhibiting cancer cell proliferation
K562 cells [3]
  tumor growth and size: significantly decreased tumor growth and size
K562 cancer cells [4]
  8-OHdG levels: increased
[5]
  CCO activity: significantly lowered
H1299 cells [6]
  cellular ATP levels: significantly reduced
[7]
  effect on noncancerous cell lines: minimum effects
[7]; 72 hours, highest concentration tested 10 μM
  viability of normal cells: not harmful
H1299 cells [8]
  glucose uptake: no noticeable changes
K562 cells [9]
  cellular ATP levels: significantly reduced
SOD1 and SOD2
  SOD2 expression level: Reduced expression
H1299 cells [10]
  glucose-dependent RNA synthesis: no noticeable changes
H1299 cells [11]
  tumor growth and size: significantly decreased tumor growth and size
Human CCS (hCCS)
  Kd: 8 µM and ~8.1 µM
[12]
  SOD activity: noticeably decreased
K562 cancer cells [13]
  cell cycle: G2/M phase cell cycle arrest
[14]
  SOD activity: noticeably decreased
K562 cells [15]
  cellular ROS level: increased cellular ROS level
H1299 cells [16]
  cellular ROS level: increased cellular ROS level
H1299 cancer cells [17]
  8-OHdG levels: increased
HeLa cells
  copper uptake: reduced copper uptake
H1299 cells [18]
  oxygen consumption rate: significantly decreased
H1299 cancer cells [19]
  cell cycle: G2/M phase cell cycle arrest
H1299 cells [20]
  lipid synthesis: significant decreases
H1299 cells [21]
  cellular level of lactate: no noticeable changes
[22]
  CCO activity: significantly lowered
[23]; mouse, in vivo, 100 mg/kg/day
  GRAN: 1.58 ± 1.4 ×10^3/μL
  HCT: 30.85 ± 4.879%
  HGB: 7.45 ± 1.768 g/dL
  LYM: 4.74 ± 1.556 ×10^3/μL
  MCH: 13.6 ± 1.273 pg
  MCHC: 24 ± 1.98 g/dL
  MCV: 56.75 ± 0.919 fL
  MONO: 0.44 ± 0.17 ×10^3/μL
  PLT: 742 ± 684.5 ×10^3/μL
  RBC: 5.43 ± 0.778 ×10^6/μL
  RDWa: 21.5 ± 4.667%
  WBC: 6.89 ± 3.125 ×10^3/μL
[23]; nude mice, 100 mg/kg/day, mean
  MPV: 6.35 ± 0.495 fL
[23]; nude, mouse, in vivo, ip, 4 weeks
  well-tolerated dose: 100 mg/kg/day
[24]
  ACC1 phosphorylation: increased
  AMPK phosphorylation: increased
